Here are results for nine compounds from PMC10140934, “In Vitro and In Silico Studies on Angiotensin I-Converting Enzyme Inhibitory Peptides Found in Hydrophobic Domains of Porcine Elastin” (Molecules, 2023).

Residues, ends and D or L forms follow the SMILES beside them. No end group written: not given here.

The assay addresses T1, ACE (from rabbit lung) (Oryctolagus cuniculus, UniProt P12822).
T1 construct: ACE (20 mU/mL, from rabbit lung) was used for the enzyme solution; from tissue; host or cells: rabbit lung
T1 sequence (P12822 34-1310): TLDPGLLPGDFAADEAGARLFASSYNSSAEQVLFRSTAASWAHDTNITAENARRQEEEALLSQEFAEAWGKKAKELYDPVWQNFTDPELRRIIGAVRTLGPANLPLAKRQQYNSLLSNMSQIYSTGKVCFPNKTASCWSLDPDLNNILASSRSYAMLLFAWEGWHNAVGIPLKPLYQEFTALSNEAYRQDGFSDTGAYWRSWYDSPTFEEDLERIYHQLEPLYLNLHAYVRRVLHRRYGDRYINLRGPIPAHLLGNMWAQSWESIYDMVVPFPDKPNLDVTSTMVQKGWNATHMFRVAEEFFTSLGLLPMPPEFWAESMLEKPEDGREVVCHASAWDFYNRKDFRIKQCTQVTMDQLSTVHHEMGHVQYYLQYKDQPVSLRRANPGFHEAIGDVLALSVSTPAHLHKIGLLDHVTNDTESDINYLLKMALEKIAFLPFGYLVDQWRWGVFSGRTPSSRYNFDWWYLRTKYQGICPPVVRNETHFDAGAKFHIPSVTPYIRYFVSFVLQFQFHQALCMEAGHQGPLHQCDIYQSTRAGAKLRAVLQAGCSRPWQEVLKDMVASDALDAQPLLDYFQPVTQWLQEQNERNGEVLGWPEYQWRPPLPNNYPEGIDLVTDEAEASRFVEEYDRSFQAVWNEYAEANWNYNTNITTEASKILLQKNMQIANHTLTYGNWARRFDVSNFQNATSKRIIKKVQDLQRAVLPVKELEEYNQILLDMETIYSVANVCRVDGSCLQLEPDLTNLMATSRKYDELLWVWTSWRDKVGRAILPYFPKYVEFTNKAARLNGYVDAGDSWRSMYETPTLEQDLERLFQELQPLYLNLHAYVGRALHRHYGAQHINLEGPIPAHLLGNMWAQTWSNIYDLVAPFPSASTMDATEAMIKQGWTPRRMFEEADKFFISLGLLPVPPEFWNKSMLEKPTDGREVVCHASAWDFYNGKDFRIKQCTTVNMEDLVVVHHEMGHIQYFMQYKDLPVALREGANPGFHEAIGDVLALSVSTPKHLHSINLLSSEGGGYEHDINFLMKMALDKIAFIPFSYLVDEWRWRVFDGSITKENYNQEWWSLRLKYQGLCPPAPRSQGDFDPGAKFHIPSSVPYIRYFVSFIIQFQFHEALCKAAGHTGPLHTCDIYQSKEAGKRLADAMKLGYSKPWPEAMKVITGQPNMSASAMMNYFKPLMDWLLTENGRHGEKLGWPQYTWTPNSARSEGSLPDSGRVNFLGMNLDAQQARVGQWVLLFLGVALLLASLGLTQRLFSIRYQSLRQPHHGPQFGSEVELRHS
Put plainly: Assay of ACE inhibitory activity (HHL substrate, o-phthalaldehyde fluorescence). Format: biochemical. Particulars: pH 8.3, 37 °C, n = 3. As for the experimental part:
The ACE inhibitory activity of newly synthesized peptides was measured under the following condition by using Nakano et al.’s method. ACE (20 mU/mL, from rabbit lung) was used for the enzyme solution and 100 mM hippuryl-histidyl-leucine (HHL) was used for the substrate solution. Each solution was prepared in 0.1 M HEPES buffer (pH 8.3, 0.3 M NaCl, 0.01% Triton-X). Both enzyme solution (25 μL) and sample solution (20 μL) were preincubated at 37 °C for 5 min. A total of 100 mM HHL substrate solution (25 μL) was added and incubated at 37 °C for 30 min. The reaction was stopped by the addition of 100 mM NaOH solution (25 μL), followed by the addition of 1% o-phthalaldehyde in methanol (25 μL) and maintained at room temperature for 20 min. Next, 100 mM HCl (25 μL) was added and further maintained at room temperature for 10 min. The amount of His-Leu cleaved from the substrate by ACE was determined by measuring the fluorescence intensity of the product reacted with o-phthalaldehyde (excitation wavelength 370 nm, emission wavelength 460 nm) in a microplate reader. ACE inhibitory activity was calculated by the following formula:a ACE inhibitory activity (%) = [1 − (a − c)/(b − d)] × 100(1) where a is the fluorescence intensity in the presence of both ACE and the inhibitor, b is the fluorescence intensity in the presence of ACE without the inhibitor, c is the fluorescence intensity in the presence of the inhibitor without ACE, and d is the fluorescence intensity in the absence of both ACE and the inhibitor. ACE inhibitory activity was expressed by IC50 value: the concentration of inhibition required to inhibit 50% of the ACE activity, and each IC50 value was measured three times.
In turn, `C[C@H](N)C(=O)N1CCC[C@H]1C(=O)O` [AP] (H-Ala-Pro-OH) returned an IC50 of 230 µM.

`C[C@H](NC(=O)CN)C(=O)N1CCC[C@H]1C(=O)O` [GAP] (H-Gly-Ala-Pro-OH) had an IC50 of 35 µM.

With `CC(C)C[C@H](NC(=O)CN)C(=O)NCC(=O)O` [GLG] (H-Gly-Leu-Gly-OH), the IC50 came out at 485 µM.

`CC(C)[C@H](NC(=O)CN)C(=O)NCC(=O)O` [GVG] (H-Gly-Val-Gly-OH) displayed an IC50 of 369 µM.

As for `C[C@@H](O)[C@H](N)C(=O)N[C@@H](CCCNC(=N)N)C(=O)N1CCC[C@H]1C(=O)O` [TRP] (H-Thr-Arg-Pro-OH), the half-maximal inhibitory concentration (IC50) was determined as 1.3 µM.

On to `CC(C)[C@H](N)C(=O)N[C@@H](C)C(=O)N1CCC[C@H]1C(=O)O` [VAP] (H-Val-Ala-Pro-OH), for which the IC50 was 1 µM.

`CC(C)[C@H](N)C(=O)N[C@@H](C)C(=O)O` [VA] (H-Val-Ala-OH) came in with an IC50 of 326 µM.

For `CC(C)[C@H](N)C(=O)N[C@@H](CO)C(=O)N1CCC[C@H]1C(=O)O` [VSP] (H-Val-Ser-Pro-OH), inhibition was half-maximal at 10.4 µM (IC50). This IC50 lies about 31-fold lower than the previous one.

VAPGVG [VAPGVG] had an IC50 of 906 µM.
